In patent US11197812B2, “Cosmetic formulations for topical applications containing erythropoietin-derived molecules” (ASC REGENITY LTD., priority 2016, dated 2021):
Where no end group is shown, it is not given here.

Experiments:
[1] = system: severe acne on the face and neck; assay: Acne Trial 1 (single test person); format: in vivo, human; settings: after one week of treatment with the respective formulation
Procedure: The test person was a person with severe acne on the face and neck. They were treated for one week with a standard cosmetic formulation based on a control lipid (dexpanthenol/panthenol), but without a polypeptide according to the invention. […] Then a cosmetic formulation according to the invention was applied, but again without a polypeptide according to the invention. The formulation contained ceramides and lecithin instead of dexpanthanol, and amino acids such as L-arginine. […] The test person then was treated with a formulation of the invention now comprising “Peptide 0”. […] After 3 weeks the test person was treated with the same formulation but which now comprised “Peptide 4” instead of the reference polypeptide (“Peptide 0”).

[2] = system: facial skin of healthy subjects; assay: Cosmetic skin improvement assay (Canfield VISIA facial skin analysis); format: in vivo, human; settings: cream once a day, after one month, versus controls / dexpanthenol 5% / QEQLERALNSS formulation
Description: In this assay the cosmetic facial skin appearance upon application of the formulations of this invention was monitored. For that purpose, the commercially available state-of-the-art facial skin imaging and data analysis platform, the Canfield Bio Visia™, was utilized, (see here: https://www.canfieldsci.com/imaging-systems/visia-complexion-analysis/). This platform provides the possibility of a i) highly standardized, ii) highly reproducible, iii) quantitative, iv) non-invasive, and vi) subject or tester bias-free skin quality analysis. It records several photos of the face from different angles and records absorption/reflection spectra (see figure: Canfield VISIA facial skin analysis platform). […] The in-built software standardizes every parameter by comparison to a large database of skin feature norms and returns a value in the range of 0%-to 100% to permit inter-individual subject comparison.
Healthy subjects received cosmetic creams with formulations of this invention or controls in a blinded manner, i.e. the subjects were unaware of the identity of the received cosmetic cream. […] Subject skin quality was assessed before the start of the application and after one month (31±3 days). As a control, to account for seasonal and lifestyle change associated skin quality changes, quality of the hand exterior surface was monitored as well. […]

[3] = system: UV light-induced erythema on skin of healthy subjects; assay: Erythema recovery assay (UVB light-induced erythema, doubled MED); format: in vivo, human; settings: 20 μl lotion on 1×1 cm^2 area, 6 hours after exposure, normalized redness
Description: Another means of measuring the efficacy of tissue-protection exerted by any formulation is the speed of skin recovery from a UVB light-induced erythema such as common sunburns. Erythema are skin irritations with enhanced redness of the skin due to local hyperaemia (enhanced blood flow in superficial capillaries) that is associated with repair processes in the skin. The quicker the repair process is, the quicker the hyperaemia gets shut down and thus the quicker the skin redness gets reduced to normal levels. Accordingly, the redness can be measured as a proxy for the damage status of the skin.
In this assay, healthy subjects received the doubled minimal erythema dose (MED) on skin areas of about 1×1 cm^2 on the left arm. Beforehand, the MED was determined individually for each subject by exposing other skin areas to increasing intensities of UV light emitted by the UV6 lamp (280-360 nm) of the Waldmann UV 802 L device. […]
Before light double MED exposure and after 6 hours, skin redness in the exposed area was spectroscopically measured using the ‘chroma meter CR-400’ manufactured by Konica Minolta. Redness of every area in every subject 6 hours after the exposure was normalized to the redness of the same area before the exposure by division of measured redness values. […]

[4] = system: skin; assay: Relative cosmetic relevance in over-all skin-protective activity; parameters: species or system human
[5] = system: persons suffering from acne; settings: human, in vivo
Procedure: Four test groups (corresponding to the “peptides, 0, 2, 3 and 4”) with each five persons (in total, 20 subjects) suffering from acne, were treated twice daily with a formulation of the invention (“iARP-lotion” with trigger factor complex) for one week. No undesirable or even pathological lesions in the relevant skin area of the test persons were observed.

`CC(C)(CO)[C@@H](O)C(=O)NCCCO` [Dexpanthenol] was tested, and the change of acne [1] was “slightly reduced”.
In the case of “NEQLERALNST (RRQEQLERALNSSRR; ′Peptide 0′ plus vasculature relaxation stimulating agents at 5′- and 3′ end;) [Peptide 1]”, the “improvement of measured skin parameters (spots, wrinkles, smoothness)” value [2] is reported as “performed even better than the formulations with the previously described […] peptide”, the “double MED-induced skin redness (erythema)” value [3] is reported as “performed even better than the formulations with the previously described […] peptide” and the “relative cosmetic relevance in over-all skin-protective activity (rank order)” value [4] is reported as “EPO<EPO fragments 1-3<Peptide 0, 1<Peptide 3<Peptide 2<Peptide 4”.
NEQLERALNTS [Peptide 2, NEQLERALNTS] was tested, and the “overall skin tolerance compatibility” value [5] was “improved overall skin tolerance compatibility as excellent” and the “unwanted skin reactions caused by skin-irritating or sensitizing effects” value (from here on “unwanted skin reactions caused”) [5] was “did not trigger any unwanted skin reactions”.
For QDQLERALNST [Peptide 3, QDQLERALNST], the “overall skin tolerance compatibility” value [5] was “improved overall skin tolerance compatibility as excellent” and the “unwanted skin reactions caused” value [5] was “did not trigger any unwanted skin reactions”.
For QDQLERALNTS [Peptide 4, QDQLERALNTS], the “overall skin tolerance compatibility” value [5] was “still rated good” and the “unwanted skin reactions caused” value [5] was “did not trigger any unwanted skin reactions”.
In the case of “QEQLERALNSS [Peptide 0, QEQLERALNSS, reference compound]”, the “unwanted skin reactions caused” value [5] is reported as “did not trigger any unwanted skin reactions”.
